Results taken from ChEMBL document CHEMBL1201862, “PubChem BioAssay data set” (2004).
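Exposure lasted 48 hours, with cells grown in 96-well plates and compounds tested at five concentrations. Here, GI50 denotes the concentration required for 50% inhibition of growth.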 Activity calls are given as the source filed them. Cut-off read from the data, not from the text of the source: active = GI50 up to about 1.1 µM and inactive = higher.

Columns and labels:
Experiment in all cases: NCI tumour cell line growth inhibition, 48 h
DU-145 = test system: DU-145
UACC-62 = test system: UACC-62
SK-MEL-28 = test system: SK-MEL-28
NCI/ADR-RES = test system: NCI/ADR-RES
SN12C = test system: SN12C
MCF7 = test system: MCF7
RPMI-8226 = test system: RPMI-8226
EKVX = test system: EKVX
KM12 = test system: KM12
U-251 = test system: U-251
MDA-N = test system: MDA-N
CCRF-CEM = test system: CCRF-CEM
COLO 205 = test system: COLO 205
HCT-116 = test system: HCT-116
OVCAR-8 = test system: OVCAR-8
Malme-3M = test system: Malme-3M
K562 = test system: K562
PC-3 = test system: PC-3
HL-60 = test system: HL-60
NCI-H522 = test system: NCI-H522
NCI-H23 = test system: NCI-H23
NCI-H460 = test system: NCI-H460
MDA-MB-435 = test system: MDA-MB-435
LOX IMVI = test system: LOX IMVI
MOLT-4 = test system: MOLT-4
SF-295 = test system: SF-295
UACC-257 = test system: UACC-257
HOP-92 = test system: HOP-92
OVCAR-3 = test system: OVCAR-3
SF-539 = test system: SF-539
HCC 2998 = test system: HCC 2998
HCT-15 = test system: HCT-15
SNB-19 = test system: SNB-19
CAKI-1 = test system: CAKI-1
786-0 = test system: 786-0
T47D = test system: T47D
TK-10 = test system: TK-10
A498 = test system: A498
HT-29 = test system: HT-29
ACHN = test system: ACHN
HOP-62 = test system: HOP-62
OVCAR-5 = test system: OVCAR-5
A549 = test system: A549
SF-268 = test system: SF-268
SW-620 = test system: SW-620
BT-549 = test system: BT-549
MDA-MB-231 = test system: MDA-MB-231
SNB-75 = test system: SNB-75
Hs-578T = test system: Hs-578T
UO-31 = test system: UO-31
OVCAR-4 = test system: OVCAR-4
SK-MEL-5 = test system: SK-MEL-5
SK-OV-3 = test system: SK-OV-3
RXF 393 = test system: RXF 393
SK-MEL-2 = test system: SK-MEL-2
M14 = test system: M14
IGROV-1 = test system: IGROV-1
SR = test system: SR
NCI-H226 = test system: NCI-H226

In the case of `O=C1/C(=C\c2cccc(Oc3ccccc3)c2)SC(c2ccccc2)N1c1cc(Cl)ccc1Cl` (configuration not stated), the GI50 (DU-145) is reported as 36 µM (inactive), the GI50 (UACC-62) is reported as 31.4 µM (inactive) and the GI50 (SK-MEL-28) is reported as 37.1 µM (inactive). For the same molecule, the GI50 (NCI/ADR-RES) was 42.6 µM (inactive), the GI50 (SN12C) was 18.7 µM (inactive) and the GI50 (MCF7) was 25.9 µM (inactive). For the same molecule, the GI50 (RPMI-8226) was 37 µM (inactive), the GI50 (EKVX) was 38.1 µM (inactive) and the GI50 (KM12) was 18.2 µM (inactive). For the same molecule, the GI50 (U-251) was 33.4 µM (inactive), the GI50 (MDA-N) was 18.4 µM (inactive) and the GI50 (CCRF-CEM) was 0.0356 µM (active). For the same molecule, the GI50 (COLO 205) was 53.5 µM (inactive), the GI50 (HCT-116) was 17.2 µM (inactive) and the GI50 (OVCAR-8) was 21.3 µM (inactive). For the same molecule, the GI50 (Malme-3M) was 28.2 µM (inactive), the GI50 (K562) was 21.2 µM (inactive) and the GI50 (PC-3) was 52.4 µM (inactive). For the same molecule, the GI50 (HL-60) was 15.1 µM (inactive), the GI50 (NCI-H522) was 21 µM (inactive) and the GI50 (NCI-H23) was 33.4 µM (inactive). The GI50 (NCI-H460) was 45.4 µM (inactive), the GI50 (MDA-MB-435) was 32.3 µM (inactive) and the GI50 (LOX IMVI) was 16.8 µM (inactive). For the same molecule, the GI50 (MOLT-4) was 10.4 µM (inactive), the GI50 (SF-295) was 24.2 µM (inactive) and the GI50 (UACC-257) was 32.7 µM (inactive). For the same molecule, the GI50 (HOP-92) was 17.7 µM (inactive), the GI50 (OVCAR-3) was 24.8 µM (inactive) and the GI50 (SF-539) was 24.3 µM (inactive). The GI50 (HCC 2998) was 37.2 µM (inactive), the GI50 (HCT-15) was 35.2 µM and the GI50 (SNB-19) was 43.4 µM (inactive). The GI50 (CAKI-1) was 69.2 µM (inactive), the GI50 (786-0) was 27 µM (inactive) and the GI50 (T47D) was 28.4 µM (inactive). The GI50 (TK-10) was 47 µM (inactive), the GI50 (A498) was > 100 µM (inactive) and the GI50 (HT-29) was 30.8 µM (inactive). For the same molecule, the GI50 (ACHN) was 43.7 µM (inactive), the GI50 (HOP-62) was 56.5 µM (inactive) and the GI50 (OVCAR-5) was 59 µM (inactive). The GI50 (A549) was 51.5 µM (inactive), the GI50 (SF-268) was 22.2 µM (inactive) and the GI50 (SW-620) was 19 µM (inactive). For the same molecule, the GI50 (BT-549) was 36.8 µM (inactive), the GI50 (MDA-MB-231) was 32.4 µM (inactive) and the GI50 (SNB-75) was > 100 µM (inactive). The GI50 (Hs-578T) was 24.4 µM (inactive), the GI50 (UO-31) was 37.2 µM (inactive) and the GI50 (OVCAR-4) was 51.2 µM (inactive). For the same molecule, the GI50 (SK-MEL-5) was 27 µM (inactive), the GI50 (SK-OV-3) was > 100 µM (inactive) and the GI50 (RXF 393) was 22.8 µM (inactive). For the same molecule, the GI50 (SK-MEL-2) was 43.5 µM (inactive), the GI50 (M14) was 30.1 µM (inactive) and the GI50 (IGROV-1) was 26.3 µM (inactive).

With `Cc1nnc2nc(-c3ccc(Cl)cc3Cl)cc(-c3ccc(Cl)cc3)n12` the GI50 (DU-145) was > 100 µM (inactive), the GI50 (UACC-62) was > 100 µM (inactive) and the GI50 (SK-MEL-28) was 21 µM (inactive). The GI50 (NCI/ADR-RES) was 87.5 µM (inactive), the GI50 (SN12C) was > 100 µM (inactive) and the GI50 (MCF7) was 31 µM (inactive). The GI50 (RPMI-8226) was 35.6 µM (inactive), the GI50 (KM12) was > 100 µM (inactive) and the GI50 (U-251) was > 100 µM (inactive). For the same molecule, the GI50 (MDA-N) was > 100 µM (inactive), the GI50 (CCRF-CEM) was > 100 µM (inactive) and the GI50 (COLO 205) was 13.7 µM (inactive). The GI50 (HCT-116) was > 100 µM (inactive), the GI50 (OVCAR-8) was > 100 µM (inactive) and the GI50 (Malme-3M) was > 100 µM (inactive). For the same molecule, the GI50 (K562) was 50.4 µM (inactive), the GI50 (PC-3) was 57.8 µM (inactive) and the GI50 (HL-60) was > 100 µM (inactive). For the same molecule, the GI50 (SR) was > 100 µM (inactive), the GI50 (NCI-H23) was > 100 µM (inactive) and the GI50 (NCI-H460) was 82.6 µM (inactive). The GI50 (MDA-MB-435) was > 100 µM (inactive), the GI50 (LOX IMVI) was > 100 µM (inactive) and the GI50 (MOLT-4) was 15.5 µM (inactive). The GI50 (NCI-H226) was > 100 µM (inactive), the GI50 (SF-295) was 91.4 µM (inactive) and the GI50 (UACC-257) was > 100 µM (inactive). The GI50 (HOP-92) was 1.47 µM (inactive), the GI50 (OVCAR-3) was 50.1 µM (inactive) and the GI50 (SF-539) was > 100 µM (inactive). The GI50 (HCT-15) was > 100 µM, the GI50 (SNB-19) was > 100 µM (inactive) and the GI50 (CAKI-1) was 66.5 µM (inactive). For the same molecule, the GI50 (786-0) was > 100 µM (inactive), the GI50 (T47D) was 89.1 µM (inactive) and the GI50 (TK-10) was > 100 µM (inactive). The GI50 (HT-29) was 20.5 µM (inactive), the GI50 (ACHN) was > 100 µM (inactive) and the GI50 (HOP-62) was > 100 µM (inactive). The GI50 (OVCAR-5) was > 100 µM (inactive), the GI50 (A549) was 76.4 µM (inactive) and the GI50 (SF-268) was 83.9 µM (inactive). The GI50 (SW-620) was > 100 µM (inactive), the GI50 (BT-549) was > 100 µM (inactive) and the GI50 (MDA-MB-231) was 47.5 µM (inactive). For the same molecule, the GI50 (Hs-578T) was > 100 µM (inactive), the GI50 (UO-31) was 24.4 µM (inactive) and the GI50 (OVCAR-4) was 23.3 µM (inactive). For the same molecule, the GI50 (SK-MEL-5) was 68.5 µM (inactive), the GI50 (SK-OV-3) was > 100 µM (inactive) and the GI50 (M14) was > 100 µM (inactive).

In the case of `COc1ccc(C2=C(N)c3c(Cl)cccc3C2=O)cc1`, the GI50 (DU-145) is reported as > 100 µM (inactive), the GI50 (UACC-62) is reported as > 100 µM (inactive) and the GI50 (SK-MEL-28) is reported as > 100 µM (inactive). The GI50 (NCI/ADR-RES) was 50 µM (inactive), the GI50 (SN12C) was > 100 µM (inactive) and the GI50 (MCF7) was > 100 µM (inactive). For the same molecule, the GI50 (RPMI-8226) was > 100 µM (inactive), the GI50 (EKVX) was > 100 µM (inactive) and the GI50 (KM12) was > 100 µM (inactive). For the same molecule, the GI50 (U-251) was 49.3 µM (inactive), the GI50 (MDA-N) was > 100 µM (inactive) and the GI50 (CCRF-CEM) was > 100 µM (inactive). For the same molecule, the GI50 (COLO 205) was > 100 µM (inactive), the GI50 (HCT-116) was 83.9 µM (inactive) and the GI50 (OVCAR-8) was 53.1 µM (inactive). The GI50 (Malme-3M) was > 100 µM (inactive), the GI50 (PC-3) was > 100 µM (inactive) and the GI50 (HL-60) was > 100 µM (inactive). For the same molecule, the GI50 (NCI-H522) was > 100 µM (inactive), the GI50 (NCI-H23) was 32.6 µM (inactive) and the GI50 (NCI-H460) was > 100 µM (inactive). The GI50 (MDA-MB-435) was > 100 µM (inactive), the GI50 (LOX IMVI) was > 100 µM (inactive) and the GI50 (MOLT-4) was 95.1 µM (inactive). For the same molecule, the GI50 (NCI-H226) was > 100 µM (inactive), the GI50 (SF-295) was > 100 µM (inactive) and the GI50 (UACC-257) was > 100 µM (inactive). The GI50 (HOP-92) was 34.9 µM (inactive), the GI50 (OVCAR-3) was > 100 µM (inactive) and the GI50 (SF-539) was > 100 µM (inactive). For the same molecule, the GI50 (HCC 2998) was > 100 µM (inactive), the GI50 (HCT-15) was > 100 µM and the GI50 (SNB-19) was 22 µM (inactive). The GI50 (CAKI-1) was > 100 µM (inactive), the GI50 (786-0) was > 100 µM (inactive) and the GI50 (T47D) was 78 µM (inactive). For the same molecule, the GI50 (A498) was > 100 µM (inactive), the GI50 (HT-29) was > 100 µM (inactive) and the GI50 (ACHN) was > 100 µM (inactive). For the same molecule, the GI50 (HOP-62) was 70 µM (inactive), the GI50 (OVCAR-5) was > 100 µM (inactive) and the GI50 (A549) was > 100 µM (inactive). For the same molecule, the GI50 (SF-268) was > 100 µM (inactive), the GI50 (SW-620) was > 100 µM (inactive) and the GI50 (BT-549) was > 100 µM (inactive). The GI50 (MDA-MB-231) was 80.2 µM (inactive), the GI50 (SNB-75) was > 100 µM (inactive) and the GI50 (Hs-578T) was 26.1 µM (inactive). The GI50 (OVCAR-4) was > 100 µM (inactive), the GI50 (SK-MEL-5) was > 100 µM (inactive) and the GI50 (SK-OV-3) was 55.3 µM (inactive). The GI50 (SK-MEL-2) was > 100 µM (inactive), the GI50 (M14) was > 100 µM (inactive) and the GI50 (IGROV-1) was > 100 µM (inactive).
